Data as given in patent US10174312B2 (priority 2014, dated 2019).
Like-named read-outs stand apart in the source and are kept apart here. Starred links: 1 amine or outer side, 2 acyl side, 3 side chain; linkers in the order of their positions; H or OH if unused. Positions of bridges follow the written chain, without caps; N, C: chain ends. Non-standard residues stand in square brackets, D forms with d. Residues, ends and D or L forms follow the SMILES beside them. Chains are numbered I, II in the order given. Actinocin(9to1) = Cc1c2oc3c(C)ccc(C(=O)[*:1])c3nc-2c(C(=O)[*:2])c(N)c1=O; NMeV = CN[C@H](C(=O)O)C(C)C; Sar = CNCC(=O)O

Experiments:
[1] = test system: pool of the S. pombe heterozygous deletion strain; type: cell-based, Schizosaccharomyces pombe; conditions: for growth inhibition effect on the strain (sampling errors confirmed, FIG. 3): 20 generation subculture, expected vs sampled generation
Protocol: In the course of 10 generation sub-culture and 20 generation sub-culture, OD600 was measured to confirm the doubling time. Then, pool fitness by doubling time (PFDT) was calculated by the below mathematical formula 2. […] PFDT=doubling time of the pool not-treated with the drug/doubling time of the pool treated with the drug [Mathematical Formula 2]

[2] = test system: S. pombe genome-wide heterozygous deletion strain; experiment: Chemical-genetic profile by DNA chip array (S. pombe compendium, DI-HI / ecDT screening); type: cell-based, Schizosaccharomyces pombe
Excerpt: To make the genetic compendium of S. pombe heterozygous deletion strain pool, DNA was separated from the strain by the conventional method, followed by chip-hybridization to quantify the growth of the strain (S. E. Pierce, E. L. Fung, D. F. Jaramillo, et al., Nat. Methods 3 (2006) 601-603).
Then, a short DNA barcode sequence in 20 bp long (named “TAG”) was inserted in the complementary region of the genomic DNA, followed by amplification with universal primers for the flanking sequence. The amount of the amplified TAG was judged by the growth of each strain, which was quantified by using the DNA chip (Affymetrix, USA) constructed with the complementary sequence of TAG.
The result of the quantitative DNA chip array was not modified by background correction, normalization, or perfect match (PM) and the mean value was used as raw intensity (Iraw). The parameter for preprocessing the raw intensity was calculated by DNA chip array according to the conventional method informed to those in the art. To calculate the minimum value of the comparative fitness by saturated intensity, modification was performed according to the below mathematical formula 3. The normalized constant was applied to each analysis based on the modified raw intensity. For the modification, chip array was repeated 5 times with the glycerol stock deletion strain pool and the mean value was obtained. The normalized final intensity was log 2-transformed for after analysis. Icorrected=Iraw×exp(−Irawα) [Mathematical Formula 3]
In the mathematical formula 3, ‘Icorrected’ indicates the modified intensity; ‘Iraw’ indicates the raw intensity; and ‘α’ indicates the variable of modification function calculated with UPTAG and DNATAG which are 0.0003412759 and 0.0002767581 respectively.
Error model was calculated according to the conventional method in order to calculate the fitness score of the drug treated S. pombe heterozygous deletion strain.
The compendium of the drug competitive growth experiment was used as the reference set. […] N and the line of drugs of 1 . . . j . . . M. The average and variable of the reference set of each strain were calculated by the below mathematical formula 4.
Z-scores and p-values of the 4400 heterozygous deletion strains were obtained with 47 drugs. The amount of each strain was represented by UPTAG and DNTAG inserted in the upstream and the downstream of the gene that had been eliminated from each strain. To investigate the significance of p-value presenting the detect of the growth in the drug treated strain, the expected intensity of UPTAG and DNTAG in the strain was calculated by the mathematical formula 5. From the mean value thereof, Z-score presenting the statistical distance was obtained. The obtained Z-score was applied to error function or standard normal distribution according to the mathematical formula 6, and the growth detect of each strain was judged by p-value in the range of 0˜1.
The growth defect by the presence or absence of each drug was investigated by the method illustrated in the schematic diagram of FIG. 5 to judge whether the heterozygous deletion gene was haplo-insufficient (HI) or haplo-sufficient (HS).

[3] = test system: S. cerevisiae heterozygous deletion strain library; conditions: cited from earlier work
[4] = each drug at its Dose(M) of Table 2, 25° C.
[5] = each drug at its Dose(M) of Table 2, 25° C., PFDT = doubling time untreated pool / treated pool
[6] = second, lower dose 1.50E−08 M (Drug ID 67.2, 71.2)

C[C@H]1CCC/C=C/[C@@H]2C[C@H](O)C[C@H]2[C@H](O)/C=C/C(=O)O1 [Brefeldin A]
PF2DT: PFDT of the sample obtained from 20 generation subculture [1, 4]: 0.986 | PF1DT: PFDT of the sample obtained from 10 generation subculture [1, 5]: 0.973

OCCN(CCO)c1nc(N2CCCCC2)c2nc(N(CCO)CCO)nc(N3CCCCC3)c2n1 [Dipyridamole]
growth inhibition effect on the strain (sampling errors confirmed, FIG. 3) [1]: growth inhibition effect

Cc1c2oc3c(C)ccc(C(=O)N[C@@H]4C(=O)N[C@H](C(C)C)C(=O)N5CCC[C@H]5C(=O)N(C)CC(=O)N(C)[C@@H](C(C)C)C(=O)O[C@@H]4C)c3nc-2c(C(=O)N[C@@H]2C(=O)N[C@H](C(C)C)C(=O)N3CCC[C@H]3C(=O)N(C)CC(=O)N(C)[C@@H](C(C)C)C(=O)O[C@@H]2C)c(N)c1=O [Actinomycin D] (I: T[dV]P[Sar][NMeV] / II: T[dV]P[Sar][NMeV]; ester I:1-I:C, II:1-II:C; linker I:N-II:N via Actinocin(9to1))
growth inhibition effect on the strain (sampling errors confirmed, FIG. 3) [1]: growth inhibition effect | PF2DT: PFDT of the sample obtained from 20 generation subculture [1, 4]: 0.709 | PF1DT: PFDT of the sample obtained from 10 generation subculture [1, 5]: 0.650

CC[C@H]1OC(=O)[C@H](C)[C@@H](O[C@H]2C[C@@](C)(OC)[C@@H](O)[C@H](C)O2)[C@H](C)[C@@H](O[C@@H]2O[C@H](C)C[C@H](N(C)C)[C@H]2O)[C@](C)(O)C[C@@H](C)C(=O)[C@H](C)[C@@H](O)[C@]1(C)O [Erythromycin]
−log (p) (Spo) ([2]; gene SPAC688.09, dose 250 μM): −42.17 | −log (p) (Sce) ([3]; gene RIM2, dose 2.5 mg/ml): −4.63

CO[C@@]12[C@H](COC(N)=O)C3=C(C(=O)C(C)=C(N)C3=O)N1C[C@@H]1N[C@@H]12 [Mitomycin C]
PF2DT: PFDT of the sample obtained from 20 generation subculture [1, 4]: 0.756 | PF1DT: PFDT of the sample obtained from 10 generation subculture [1, 5]: 0.840 | −log (p) (Spo) ([2]; gene cdc10, dose 80 μM): −6.16 | −log (p) (Spo) ([2]; gene snf21, dose 80 μM): −4.022 | −log (p) (Sce) ([3]; gene SPC105, dose 1000): −14.52 | −log (p) (Sce) ([3]; gene STH1, dose 1000): −5.49 | −log (p) (Sce) ([3]; gene SWI6, dose 1000): −5.228

COc1ccc([C@@H]2Sc3ccccc3N(CCN(C)C)C(=O)[C@@H]2OC(C)=O)cc1.Cl [Dilitiazem hydrochloride]
PF2DT: PFDT of the sample obtained from 20 generation subculture [1, 4]: 0.890 | PF1DT: PFDT of the sample obtained from 10 generation subculture [1, 5]: 0.896

CN(Cc1cnc2nc(N)nc(N)c2n1)c1ccc(C(=O)N[C@@H](CCC(=O)O)C(=O)O)cc1 [Methotrexate]
−log (p) (Spo) ([2]; gene ssr2, dose 500 μM): −4.28 | −log (p) (Sce) ([3]; gene RSC8, dose 250): −4.275

Clc1ccccc1C(c1ccccc1)(c1ccccc1)n1ccnc1 [Clotrimazole]
−log (p) (Spo) ([2]; gene erg11, dose 0.1 μM): −13.15

CCCCOc1ccc(C(=O)CCN2CCCCC2)cc1 [Dyclonine]
growth inhibition effect on the strain (sampling errors confirmed, FIG. 3) [1]: growth inhibition effect | −log (p) (Spo) ([2]; gene SPAC22F8.08, dose 68 μM): −12.19 | −log (p) (Spo) ([2]; gene SPCC1450.10c, dose 68 μM): −6.928 | −log (p) (Spo) ([2]; gene rpn12, dose 68 μM): −40.98 | −log (p) (Sce) ([3]; gene NAR1, dose 500): −4.84 | −log (p) (Sce) ([3]; gene RPN12, dose 500): −4.338 | −log (p) (Sce) ([3]; gene SEC24, dose 500): −6.632

Cn1c(=O)c2[nH]cnc2n(C)c1=O [Theophylline anhydrous]
PF2DT: PFDT of the sample obtained from 20 generation subculture [1, 4]: 0.924 | PF1DT: PFDT of the sample obtained from 10 generation subculture [1, 5]: 0.887

Tunicamycin
PF2DT: PFDT of the sample obtained from 20 generation subculture [1, 4]: 1.027 | PF1DT: PFDT of the sample obtained from 10 generation subculture [1, 5]: 0.935 | PF1DT: PFDT of the sample obtained from 10 generation subculture [1, 6]: 0.954 | PF2DT: PFDT of the sample obtained from 20 generation subculture [1, 6]: 1.007 | −log (p) (Spo) ([2]; gene gpt2 heterozygous deletion, dose 0.03125 μM): −4.976 | −log (p) (Sce) ([3]; gene ALG7, dose 0.015 μM): −5.227 | −log (p) (Sce) ([3]; gene ALG7, dose 150 ng/mL): −24

O=C(CCCN1CCC(O)(c2ccc(Cl)cc2)CC1)c1ccc(F)cc1 [Haloperidol]
−log (p) (Spo) ([2]; gene fet5, dose 88.3 μM): −4.402 | −log (p) (Sce) ([3]; gene YLR243W, dose 125): −7.301

COc1cccc2c1C(=O)c1c(O)c3c(c(O)c1C2=O)C[C@@](O)(C(=O)CO)C[C@@H]3O[C@H]1C[C@H](N)[C@H](O)[C@H](C)O1 [Doxorubicin]
−log (p) (Spo) ([2]; gene rpa2, dose 24 μM): −15.09 | −log (p) (Spo) ([2]; gene vma1, dose 24 μM): −28.26 | −log (p) (Spo) ([2]; gene vma7, dose 24 μM): −6.287 | −log (p) (Sce) ([3]; gene RPA135, dose 62.5): −6.279 | −log (p) (Sce) ([3]; gene TFP1, dose 62.5): −8.374 | −log (p) (Sce) ([3]; gene VMA7, dose 62.5): −28.85

C=C1[C@@H](C)[C@H]2[C@H](Cc3ccccc3)NC(=O)[C@]23OC(=O)/C=C/[C@H](O)CCC[C@@H](C)C/C=C/[C@H]3[C@@H]1O [Cytochalasin B]
PF2DT: PFDT of the sample obtained from 20 generation subculture [1, 4]: 0.785 | PF1DT: PFDT of the sample obtained from 10 generation subculture [1, 5]: 0.954

CN(C/C=C/C#CC(C)(C)C)Cc1cccc2ccccc12 [Terbinafine]
−log (p) (Spo) ([2]; S. pombe gene not printed (ortholog of RRP1), dose 0.03 μM): −6.1 | −log (p) (Spo) ([2]; gene erg1, dose 0.015 μM): −24.83 | −log (p) (Spo) ([2]; gene erg1, dose 0.03 μM): −49.77 | −log (p) (Sce) ([3]; gene ERG1, dose 2.5 ug/ml): −80.59 | −log (p) (Sce) ([3]; gene RRP1, dose 7.2 μM): −4.515
